Experimental findings from US20090069418A1, “Compositions and Methods for the Treatment of Disorders Associated with Aberrant Vasodilation” (priority 2007, published 2009) are described below.

Data set [1] has as its system epoxide hydrolase. The data set is described as follows: Hydrolase activity in brain tissue ex vivo, conversion of 14,15-EET to 14,15-DHET (ELISA). In kind it is biochemical, mouse. To be noted: both WT and KO brain tissue. The method, then: Total 14,15-DHET in blood was measured with a commercial ELISA (Detroit R&D, Inc, Detroit, Mich.) (Koerner et al. (2007) J. Neurosci., 27:4642-4649). Briefly, plasma lipids were extracted 3 times with ethyl acetate under acidic conditions (pH 3 to 4), followed by saponification with 20% KOH. Samples were dried and resuspended in methanol, and 14,15-DHET concentration was measured according to the manufacturer's instructions. The ELISA was also used to measure hydrolase activity in brain tissue (perfused to remove blood) incubated with 1 μM 14,15-EET for 30 minutes. Brian tissue was homogenized in 4 volumes of ice-cold buffer (20 mmol/L Tris HCL pH 7.4, 0.32 mol/L sucrose, 1 mmol/L EDTA), centrifuged at 1000 g for 10 minutes, and supernatant was further centrifuged at 10,000 g for 20 minutes.

Data set [2] can be described thus: Pharmacokinetics of AUDA-BE and its metabolites in plasma after single intraperitoneal injection. In kind it is in vivo, C57Bl/6 mice. The method, then:
A second set of animals was injected with sesame oil alone (vehicle). […] (2002) Biochem. Pharmacol., 63:1599-608; Watanabe et al. (2006) Anal. Chim. Acta., 559:37-44). Briefly, blood samples (10 μL) were collected in 1.5 mL Eppendorf microcentrifuge tubes, weighed, and vortexed with 100 μL of purified water. […] Aliquots (10 μL) were analyzed by liquid chromatography coupled mass spectroscopy LC-MS/MS (Watanabe et al. (2006) Anal. Chim. Acta., 559:37-44; Watanabe and Hammock (2001) Anal. Biochem., 299:227-34). The concentration of sEH inhibitors were quantified in extracts using HPLC with positive mode electrospray ionization and tandem mass spectrometry. Analytes were quantified on a 5-point curve with internal standard methods. Surrogate recoveries were evaluated by quantification against the internal standard. Surrogate recoveries were 70% for all reported plasma samples, the analysis of reagent blanks, matrix spikes, and analytical replicates were used to document method stability during this study. […] Differences in infarct size, enzyme activity, and blood flow rates were analyzed with a t-test for two groups and analysis of variance with post hoc Newman-Keuls multiple range test for multiple groups. The pharmacokinetic profile was examined for goodness of fit to a noncompartmental or multicompartmental models. Pharmacokinetic parameters were then obtained by fitting the blood-concentration-time data to a non-compartmental model with the WinNonlin software (Pharsight, Mountain View, Calif., USA), as described previously (Watanabe et al. (2006) Anal. Chim. Acta., 559:37-44). The criterion for statistical significance was set at P<0.05. All values are reported as mean±s.e.m.

Data set [3] can be described thus: AUDA-BE and its metabolites measured in brain tissue. In kind it is in vivo, mice. The source says: This concentration was also biologically effective in lowering blood pressure in hypertensive model (Imig et al. (2005) Hypertension 46:975-81). Therefore, in these experiments, the levels of sEH inhibitors in the blood are in the concentration range expected to inhibit the enzyme.

As to `CCCCOC(=O)CCCCCCCCCCCNC(=O)NC12CC3CC(CC(C3)C1)C2` [AUDA-BE, 12-(3-adamantane-1-yl-ureido)-dodecanoic acid butyl ester], the “metabolism of 14,15-EET to 14,15-DHET in brain tissue” value in data set [1] is reported as “inhibited”. In addition, the “adverse effects during the 24-hour period after drug administration” value in data set [2] (10 or 40 mg/kg doses) is listed as “No apparent adverse effects”. In addition, the “detection of parent drug in plasma” value in data set [2] (AUDA-BE 10 mg/kg intraperitoneal) is “only the metabolites AUDA and AUBA were detected”. Besides, in data set [2] (AUDA-BE 40 mg/kg intraperitoneal, within the first hour), the “maximum concentration in plasma” value was found to be 2 µmol/L. Besides, the “levels detected in homogenates of brain tissue” value in data set [3] (after AUDA-BE injection, methanol/chloroform extraction) is reported as “not”. For the same compound, in data set [3] (mouse, in vivo), the “crossing the blood brain barrier (BBB)” value was “capable of crossing the blood brain barrier”.
